# According to US4613601A, “(1-benzodioxin-6-ylmethyl)-4-substituted piperazines having antipsychotic activity” (Adir, S.A.R.L., priority 1982, dated 1986):
# Assays:
# [1] = test system: dopaminergic post-synaptic receptors of the striatum; test: stereotyped movements in rats (Quinton and Halliwell scale); assay type: in vivo; conditions: for total stereotypy score in 3 hours: 6 observations; for total stereotypy score in 3 hours / total stereotypy score: groups of 8 rats; for stimulating activity on the dopaminergic post-synaptic receptors of the striatum: rats, from stereotypy scores
# Method: The research for stereotyped movements, proof of the existence of a direct post-synaptic dopaminergic stimulating activity, has been carried out in rats using the scale described by R. M. QUINTON and H. HALLIWELL, Nature, 200, 1963, 178-179. The experiment lasts 3 hours, the animals are observed every 30 minutes. The groups are made up of 8 rats each, and the results are the total scores of the accumulated individual scores of the stereotypies observed during the experiment (6 observations).
# [2] = test system: dopaminergic inhibitory auto-receptors; test: electro-encephalogram / sleep in rats; assay type: in vivo
# [3] = test system: hypersensitive post-synaptic dopaminergic receptors; test: rotations in rats with unilateral lesions of the nigro-neostriatal tract (Ungerstedt); assay type: in vivo, rat
# Method: The central dopaminergic activity for the compounds of the present invention was determined, especially by measuring the rotations of the rat according to the method of Ungerstedt U., European Journal of Pharmacology, 5, (1968) 107-110. For the compounds of the present invention, administered at a dose of 25 mg/kg subcutaneously, up to 380 rotations were obtained in 45 minutes.
# Experiments have also been carried out on rats with unilateral lesions of the nigro-neostriatal tract.
# These lesions are produced by local micro-injection of 6-hydroxy dopamine into the black substance of the rat, according to U. Ungerstedt; Europ. J. Pharmacol. 5, 1968, 107-110 and Advances in Neurology, vol. 3, Raven Press., New York (1973).
# This treatment leads to a degeneration of the dopaminergic neurons coming from the nigra-substantia, going towards the neostriatum.
# Furthermore, following this denervation, the post-synaptic receptors situated above the pithed tract, i.e., above the synapse which leads to the pithed neuron, become hypersensitive to the pharmacological dopaminergic agents administered. This direct activation of hypersensitive dopaminergic receptors then produces the supervention of a motor rotation behaviour in treated rats.
# When the left nigro-striatal tract is destroyed, the rotations occur towards the right, on the opposite side to the lesion. The experimental groups each contain from 5 to 6 animals.
# [4] = test system: conditioned avoidance response; test: conditioned avoidance response inhibition in the rat (shuttle box avoidance); assay type: in vivo, male WISTAR rats
# Method: The method used is based on the works of COURVOISIER et al., Arch. Int. Pharmacodyn. 92, 305-361, (1953), and of JANSSEN et al., Arzneim. Forsch. 15, 104-117, (1965).
# The experiments are carried out on groups of 10 to 20 male WISTAR rats weighing between 300 g and 400 g. Each animal is submitted to two day-sessions per week, one after treatment carried out on the substance studied at a given dose, 30 minutes before the session, the other following the administration of a solute of NaCl (0.154M)--I.P. route in both cases. The compound of Example 1 has been administered in solution in sterile bi-distilled water, at doses of 6.25, 12.5, 25, 50 and 75 mg/kg. I.P.
# Piribedil chosen as reference product has been administered at the same doses and by the same route. This method is used to show the anti-psychotic activity of a substance. It is known that anti-psychotic agents inhibit the conditioned shunning response, without modifying the escape response following an electric shock (Unconditioned response).
# [5] = test system: d-amphetamine-induced dopaminergic hyperactivity; test: inhibition of d-amphetamine-induced motor phenomena in mice (activograph); assay type: in vivo
# Method: the administration of d-amphetamine, at a dose of 1 to 3 mg/kg I.P. in mice, releases the supervention of motor phenomena registered using an activograph.
# [6] = test system: pre-synaptic dopaminergic receptors; test: hypokinesia in the normal animal, mice or rats; assay type: in vivo
# [7] = test system: dopaminergic inhibitory auto-receptors; test: motor depressant effects (hypokinesia) in mice; assay type: in vivo; conditions: all doses studied from 20 to 160 mg/kg I.P.
# Excerpt: The motor depressant effects of the compound of Example 1 have been studied in mice.
compound,measurement,setting,value
"C1=COc2cc(CN3CCN(c4ncccn4)CC3)ccc2O1 [Example 1, 1-(benzodioxin-6-ylmethyl)-4-(pyrimidin-2-yl)piperazine]",stereotyped movements,[1]; 80 mg/kg I.P. or S.C.,very few stereotyped movements
same,total stereotypy score in 3 hours,[1]; 80 mg/kg I.P.,52
same,total stereotypy score in 3 hours,[1]; 80 mg/kg S.C.,49
same,stereotypy in normal rats,[1]; normal rats,practically no sterotypy
same,stimulating activity on the dopaminergic post-synaptic receptors of the striatum,[1],no important stimulating activity
same,central effects observed in the electro-encephalogram,[2],central depressant effects
same,"total sleep (slow sleep and paradoxal sleep), words",[2]; 30 mg/kg I.P.,increase in total sleep
same,increase in total sleep,"[2]; 30 mg/kg I.P., second hour following administration",100%
same,average number of rotations in 45 minutes,[3]; 12.5 mg/kg S.C.,182 rotations
same,average number of rotations in 45 minutes,[3]; 25 mg/kg S.C.,380 rotations
same,average number of rotations in 45 minutes,[3]; 50 mg/kg P.O.,543 rotations
same,rotations in the unilaterally pithed rat,"[3]; right side, opposite side to the lesion",numerous rotations
same,"Crossings, % over 20",[4]; 6.25 mg/kg I.P.,-3%
same,"Escape response, % in relation to control animals",[4]; 6.25 mg/kg I.P.,-14%
same,"Escape response, % over 20",[4]; 6.25 mg/kg I.P.,1.5%
same,"Escape response, Number over 20",[4]; 6.25 mg/kg I.P.,0.30
same,"Shunning response, % in relation to control animals",[4]; 6.25 mg/kg I.P.,+0.25%
same,"Shunning response, % over 20",[4]; 6.25 mg/kg I.P.,98.5%
same,"Shunning response, Number over 20",[4]; 6.25 mg/kg I.P.,19.7
same,"Crossings, Number over 20","[4]; 6.25 mg/kg I.P., * = P < 0.05",20.6
same,"Crossings, % over 20",[4]; 12.50 mg/kg I.P.,-15%
same,"Escape response, % in relation to control animals",[4]; 12.50 mg/kg I.P.,+71%
same,"Escape response, % over 20",[4]; 12.50 mg/kg I.P.,3%
same,"Escape response, Number over 20",[4]; 12.50 mg/kg I.P.,0.6
same,"Shunning response, % in relation to control animals",[4]; 12.50 mg/kg I.P.,-1%
same,"Shunning response, % over 20",[4]; 12.50 mg/kg I.P.,97%
same,"Shunning response, Number over 20",[4]; 12.50 mg/kg I.P.,19.4
same,"Crossings, Number over 20","[4]; 12.50 mg/kg I.P., * = P < 0.05",18.0
same,"Crossings, % over 20",[4]; 25 mg/kg I.P.,-9%
same,"Escape response, % in relation to control animals",[4]; 25 mg/kg I.P.,+71%
same,"Escape response, % over 20",[4]; 25 mg/kg I.P.,3%
same,"Escape response, Number over 20",[4]; 25 mg/kg I.P.,0.6
same,"Shunning response, % in relation to control animals",[4]; 25 mg/kg I.P.,-1%
same,"Shunning response, % over 20",[4]; 25 mg/kg I.P.,97%
same,"Shunning response, Number over 20",[4]; 25 mg/kg I.P.,19.4
same,"Crossings, Number over 20","[4]; 25 mg/kg I.P., * = P < 0.05",19.2
same,"Crossings, % change in relation to control animals",[4]; 50 mg/kg I.P.,+8%
same,"Escape response, % in relation to control animals",[4]; 50 mg/kg I.P.,+814%
same,"Escape response, % over 20",[4]; 50 mg/kg I.P.,16%
same,"Shunning response, % in relation to control animals",[4]; 50 mg/kg I.P.,-15%
same,"Shunning response, % over 20",[4]; 50 mg/kg I.P.,84%
same,diminution of the number of shunning responses,[4]; 50 mg/kg I.P.,15%
same,increase of the escape responses,[4]; 50 mg/kg I.P.,800%
same,"Crossings, Number over 20","[4]; 50 mg/kg I.P., * = P < 0.05",22.9
same,"Escape response, Number over 20","[4]; 50 mg/kg I.P., * = P < 0.05",3.2
same,"Shunning response, Number over 20","[4]; 50 mg/kg I.P., * = P < 0.05",16.8
same,"Crossings, % change in relation to control animals",[4]; 75 mg/kg I.P.,+63%
same,"Escape response, % in relation to control animals",[4]; 75 mg/kg I.P.,+533%
same,"Escape response, % over 20",[4]; 75 mg/kg I.P.,9.5%
same,"Shunning response, % in relation to control animals",[4]; 75 mg/kg I.P.,-8%
same,"Shunning response, % over 20",[4]; 75 mg/kg I.P.,90.5%
same,diminution of the number of shunning responses,[4]; 75 mg/kg I.P.,8%
same,increase of the escape responses,[4]; 75 mg/kg I.P.,500%
same,increase of the number of spontaneous crossings,[4]; 75 mg/kg I.P.,63%
same,"mobility depressor, sedative, cataleptigenic effect",[4]; 75 mg/kg I.P.,"neither a mobility depressor effect, nor sedative effect, nor cataleptigenic effect"
same,"Crossings, Number over 20","[4]; 75 mg/kg I.P., * = P < 0.05",25.4
same,"Escape response, Number over 20","[4]; 75 mg/kg I.P., * = P < 0.05",1.9
same,"Shunning response, Number over 20","[4]; 75 mg/kg I.P., * = P < 0.05",18.1
same,conditioned and unconditioned responses,[4]; I.P.,reduces the conditioned responses without diminishing the unconditioned escape responses
same,antagonism of the effects of d-amphetamine,[5]; 20 mg/kg compound against 1 mg/kg I.P. d-amphetamine,antagonise
same,antagonism of the effects of d-amphetamine,[5]; 40 mg/kg compound against 3 mg/kg I.P. d-amphetamine,antagonise
same,inhibition of the motor phenomena due to d-amphetamine,[5]; joint administration with d-amphetamine 1 to 3 mg/kg I.P.,inhibition of the motor phenomena due to the amphetamine
same,hypokinesia in the normal animal,[6],only provokes an hypokinesia
same,hypokinesia in mice,[7],provokes in mice a hypokinesia at all the doses studied
"c1cnc(N2CCN(Cc3ccc4c(c3)OCO4)CC2)nc1 [Piribedil, reference compound]",total stereotypy score,[1]; 20 mg/kg I.P.,145
same,total stereotypy score,[1]; 40 mg/kg I.P.,246
same,stimulating activity on the dopaminergic post-synaptic receptors of the striatum,[1],stimulates these receptors
same,reduction of total sleep,"[2]; E.E.G., same dose (30 mg/kg I.P.)",50%
same,average number of rotations in 45 minutes,[3]; 50 mg/kg P.O.,256 rotations
same,"Crossings, % change in relation to control animals",[4]; 6.25 mg/kg I.P.,+50%
same,"Escape response, % in relation to control animals",[4]; 6.25 mg/kg I.P.,+50%
same,"Escape response, % over 20",[4]; 6.25 mg/kg I.P.,3%
same,"Escape response, Number over 20",[4]; 6.25 mg/kg I.P.,0.6
same,"Shunning response, % in relation to control animals",[4]; 6.25 mg/kg I.P.,-1%
same,"Shunning response, % over 20",[4]; 6.25 mg/kg I.P.,97%
same,"Shunning response, Number over 20",[4]; 6.25 mg/kg I.P.,19.4
same,"Crossings, Number over 20","[4]; 6.25 mg/kg I.P., * = P < 0.05",29.5
same,"Crossings, % change in relation to control animals",[4]; 12.50 mg/kg I.P.,+47%
same,"Escape response, % in relation to control animals",[4]; 12.50 mg/kg I.P.,0%
same,"Escape response, % over 20",[4]; 12.50 mg/kg I.P.,2%
same,"Escape response, Number over 20",[4]; 12.50 mg/kg I.P.,0.4
same,"Shunning response, % in relation to control animals",[4]; 12.50 mg/kg I.P.,0%
same,"Shunning response, % over 20",[4]; 12.50 mg/kg I.P.,98%
same,"Shunning response, Number over 20",[4]; 12.50 mg/kg I.P.,19.1
same,"Crossings, Number over 20","[4]; 12.50 mg/kg I.P., * = P < 0.05",28.9
same,"Crossings, % change in relation to control animals",[4]; 25 mg/kg I.P.,+148%
same,"Escape response, % in relation to control animals",[4]; 25 mg/kg I.P.,+149%
same,"Escape response, % over 20",[4]; 25 mg/kg I.P.,5%
same,"Escape response, Number over 20",[4]; 25 mg/kg I.P.,1
same,"Shunning response, % in relation to control animals",[4]; 25 mg/kg I.P.,-3%
same,"Shunning response, % over 20",[4]; 25 mg/kg I.P.,95%
same,"Shunning response, Number over 20",[4]; 25 mg/kg I.P.,19
same,"Crossings, Number over 20","[4]; 25 mg/kg I.P., * = P < 0.05",48.9
same,"Crossings, % change in relation to control animals",[4]; 50 mg/kg I.P.,+118%
same,"Escape response, % in relation to control animals",[4]; 50 mg/kg I.P.,+50%
same,"Escape response, % over 20",[4]; 50 mg/kg I.P.,3%
same,"Shunning response, % in relation to control animals",[4]; 50 mg/kg I.P.,-1%
same,"Shunning response, % over 20",[4]; 50 mg/kg I.P.,97%
same,"Crossings, Number over 20","[4]; 50 mg/kg I.P., * = P < 0.05",42.9
same,"Escape response, Number over 20","[4]; 50 mg/kg I.P., * = P < 0.05",0.6
same,"Shunning response, Number over 20","[4]; 50 mg/kg I.P., * = P < 0.05",19.4
same,"Crossings, % change in relation to control animals",[4]; 75 mg/kg I.P.,+115%
same,"Escape response, % in relation to control animals",[4]; 75 mg/kg I.P.,+633%
same,"Escape response, % over 20",[4]; 75 mg/kg I.P.,11%
same,"Shunning response, % in relation to control animals",[4]; 75 mg/kg I.P.,-10%
same,"Shunning response, % over 20",[4]; 75 mg/kg I.P.,89%
same,"Crossings, Number over 20","[4]; 75 mg/kg I.P., * = P < 0.05",33.5
same,"Escape response, Number over 20","[4]; 75 mg/kg I.P., * = P < 0.05",2.2
same,"Shunning response, Number over 20","[4]; 75 mg/kg I.P., * = P < 0.05",17.8
same,effect on the shunning responses,[4]; 6.25 to 75 mg/kg I.P.,no agonistic effect on the shunning responses
